row,SMILES,melting point
1,"CC(F)(F)c1ccc2c(c1)C=C(C(=O)O)C(C(F)(F)F)O2 (stereo not shown) [Example 34d, 6-(1,1-difluoroethyl)-2-(trifluoromethyl)-2H-chromene-3-carboxylic acid]",156 to 158 °C (dec.)
2,"CCCc1ccc(Oc2ccc3c(c2)OC(C(F)(F)F)C(C(=O)O)=C3)cc1 (stereo not shown) [Example 713, 7-(4-Propylphenoxy)-2-(trifluoromethyl)-2H-chromene-3-carboxylic acid]",143.5 to 146.5 °C
3,"CCc1cnc(Oc2cc3c(cc2Cl)C=C(C(=O)O)C(C(F)(F)F)O3)nc1 (stereo not shown) [Example 864, 6-Chloro-7-[(5-ethylpyrimidin-2-yl)oxy]-2-(trifluoromethyl)-2H-chromene-3-carboxylic acid]",96.5 to 98 °C
4,"O=C(O)C1=Cc2c(ccc(Cl)c2-c2ccco2)OC1C(F)(F)F (stereo not shown) [Example 867, 6-Chloro-5-(2-furyl)-2-(trifluoromethyl)-2H-chromene-3-carboxylic acid]",191 to 193 °C
5,"O=C(O)C1=Cc2c(ccc(Cl)c2-c2ccsc2)OC1C(F)(F)F (stereo not shown) [Example 868, 6-Chloro-5-thien-3-yl-2-(trifluoromethyl)-2H-chromene-3-carboxylic acid]",211 to 213.5 °C
6,"Cc1ccc(-c2c(Cl)ccc3c2C=C(C(=O)O)C(C(F)(F)F)O3)cc1 (stereo not shown) [Example 869, 6-Chloro-5-(4-methylphenyl)-2-(trifluoromethyl)-2H-chromene-3-carboxylic acid]",218 to 220 °C
7,"Cc1cccc(-c2c(Cl)ccc3c2C=C(C(=O)O)C(C(F)(F)F)O3)c1 (stereo not shown) [Example 870, 6-Chloro-5-(3-methylphenyl)-2-(trifluoromethyl)-2H-chromene-3-carboxylic acid]",222.5 to 224 °C
8,"CC(C)c1cccc(-c2c(Cl)ccc3c2C=C(C(=O)O)C(C(F)(F)F)O3)c1 (stereo not shown) [Example 871, 6-Chloro-5-(3-isopropylphenyl)-2-(trifluoromethyl)-2H-chromene-3-carboxylic acid]",184 to 186.5 °C
9,"O=C(O)C1=Cc2c(ccc(Cl)c2-c2ccccc2)OC1C(F)(F)F (stereo not shown) [Example 872, 6-Chloro-5-phenyl-2-(trifluoromethyl)-2H-chromene-3-carboxylic acid]",229 to 231 °C
10,"CCc1c(Cl)ccc2c1C=C(C(=O)O)C(C(F)(F)F)O2 (stereo not shown) [Example 873, 6-Chloro-5-ethyl-2-(trifluoromethyl)-2H-chromene-3-carboxylic acid]",171.5 to 172.5 °C
11,"Nc1c(Cl)ccc2c1C=C(C(=O)O)C(C(F)(F)F)O2 (stereo not shown) [Example 876, 5-Amino-6-chloro-2-(trifluoromethyl)-2H-chromene-3-carboxylic acid]",208.5 to 210 °C
12,"O=C(O)C1=Cc2cc3occ(-c4ccc(Br)cc4)c3cc2OC1C(F)(F)F (stereo not shown) [Example 921, 3-(4-bromophenyl)-6-(trifluoromethyl)-6H-furo[2,3-g]chromene-7-carboxylic acid]",> 250 °C
13,"O=C(O)C1=Cc2c(ccc3occ(-c4ccc(Br)cc4)c23)OC1C(F)(F)F (stereo not shown) [Example 922, 1-Para-bromophenyl-7-(trifluoromethyl)-7H-furo[3,2-f]chromene-8-carboxylic acid]",> 250 °C

# — US20050148627A1, “Benzopyran compounds for use in the treatment and prevention of inflammation related conditions” (priority 2003, published 2005)
